From patent publication US10640524B2, “Prototype systems of theranostic biomarkers for in vivo molecular management of cancer” (EPOS-IASIS RESEARCH AND DEVELOPMENT, LTD, priority 2015, dated 2020)

What was measured:
[1] = system: colon cancer cells (SW480); experiment: Antiproliferative effect of A1F-D1F on colon cancer cells; format: cell-based; conditions: for effect on cell viability with respect to the control (no drug): SW480, FIG. 3; for cell viability with respect to the control: human, 24 h
Experimental: The antiproliferative effect of the following compounds A1F, B1F, C1F and D1F were tested on colon cancer cells (SW480).

LoVo cells = experiment: MTT colorimetric assay of antiproliferative efficacy; format: cell-based; conditions: FIG. 4
SW620 cells = experiment: Label-free temporal quantitative pharmacoproteomics; format: cell-based; conditions: 0.04 mM
Experimental: The following experiment was performed to uncover new biomarkers of therapeutic response to the anticancer efficacy of the natural product based theranostic systems of the present invention.
In this experiment, SW620 cells were seeded in T75 flasks in DMEM, 10% FBS and 1% Penicillin/Streptomycin (all from Gibco). The cells were allowed to attach overnight. The following day the medium was removed and fresh medium containing 0.04 mM of either γT (γ-tocotrienol) or DCE-γT (diluted in absolute ethanol; final concentration of ethanol in the medium was 0.1% v/v). For control untreated cells, equal amount of fresh medium (containing ethanol at 0.1% v/v final concentration) was added.
SW620 cells were harvested after 24, 36 and 48 hrs of incubation with γT or DCE-γT. Briefly, the medium was removed and the cells were rinsed three times with PBS (without Ca, Mg) (Gibco). Fresh PBS was added and the cells were scraped off the flasks and collected in tubes. Collected cells were centrifuged at 1000 rpm (165 g) for 3 min and the supernatant was removed. The cell pellet was re-suspended in PBS and the centrifugation step was repeated. The supernatant was removed and the cells in minimal residual PBS were snap-freezed in liquid nitrogen. Once frozen the cells were stored in −80° C. until the proteomics analysis.
In terms of data analysis, a threshold of relative protein abundance equal or greater than 1.5-fold increase or decrease was set.

[2] = In vivo biodistribution by quantitative fluorescence imaging; design: species or system mouse
Experimental: A study of the in vivo biodistribution of a dicarboxylic ester of γ-Tocotrienol (DCE-γT) (enabled by customized histopathologic processing and quantitative fluorescence imaging) was performed. The study disclosed liver uptake as a function of time defining fluorescent chromanol esters as valued molecular probes. The structure of the dicarboxylic ester of γ-Tocotrienol (DCE-γT) is as follows:
Fluorescent signals of the DCE-γT and its free fluorescent metabolite, corresponding to the fluorescent ligand, peaked at 30 min and 3 hrs respectively, which was in agreement with in vitro findings. Colon uptake as a function of time confirms the mitochondrial predilection of the esterified chromanols and claims a new generation of optically active mitocans.

[3] = target: T1, EGFR membrane tyrosine kinase receptor (Homo sapiens, UniProt P00533); experiment: FRET between EGFR-Luc and fluorescent ester in transfected cells; format: cell-based; conditions: EGFR negative colon cancer cells transfected with EGFR-Luc plasmid; FIG. 5
T1 construct: expressed in transfected cells
Experimental: The fluorescent esters of the natural products disclosed herein can also be used as molecular probes for deciphering the interaction between the natural product and potential biomarkers in cancer cells. EGFR negative colon cancer cells were transiently transfected with a rationally designed EGFR-Luc plasmid and incubated with the DCE-γ-Tocotrienol ester. Bioluminescence of the Luciferase (donor) was assessed against the fluorescence signal of either the DCE-γ-Tocotrienol ester or the hydrolysis product (acceptor).

[4] = system: EGFR-Luc and Grb2-GFP interaction; experiment: BRET of the interaction between EGFR-Luc and Grb2-GFP; format: cell-based

Compound: C=CC(=O)Nc1cc2c(Nc3ccc(Br)cc3)ncnc2cc1NC(=O)CCl [A1F]
- effect on cell viability with respect to the control (no drug) [1]: reduce the viability of the cells
- cell viability with respect to the control [1]: 20%

Compound: C=CC(=O)Nc1cc2c(Nc3ccc(C(C)C)cc3)ncnc2cc1NC(=O)CCl [B1F]
- effect on cell viability with respect to the control (no drug) [1]: reduce the viability of the cells

Compound: C=CC(=O)Nc1cc2c(NCc3cccc4ccccc34)ncnc2cc1NC(=O)CCl [C1F]
- effect on cell viability with respect to the control (no drug) [1]: reduce the viability of the cells
- cell viability with respect to the control [1]: 20%

Compound: C=CC(=O)Nc1cc2c(Nc3ccc(C(C)(C)C)cc3)ncnc2cc1NC(=O)CCl [D1F]
- effect on cell viability with respect to the control (no drug) [1]: reduce the viability of the cells
- cell viability with respect to the control [1]: 20%

Compound: CC1(C)C(/C=C/C=C/C=C/C=C2\N(CCCCS(=O)(=O)[O-])c3ccc4ccccc4c3C2(C)C)=[N+](CCCCS(=O)(=O)[O-])c2ccc3ccccc3c21.[Na+] [free cyanine dye, indocyanine green, reference compound]
- antiproliferative efficacy (LoVo cells): did not exhibit any antiproliferative effects

Compound: CCN1\C(=C/C=C/C=C/C=C/C2=[N+](CCCCCC(=O)NCC(=O)Nc3cccc(Nc4ncnc5ccc(NC(=O)COC)cc45)c3)c3ccc4ccccc4c3C2(C)C)C(C)(C)c2c1ccc1ccccc21.[Br-] [theranostic system]
- antiproliferative efficacy (LoVo cells): significantly higher antiproliferative efficacy than free anilinoquinazoline

Compound: CC(C)=CCC/C(C)=C/CC/C(C)=C/CC[C@]1(C)CCc2cc(O)c(C)c(C)c2O1 [γT, γ-tocotrienol, reference compound]
- decrease in protein level of histone H2B types (SW620 cells; versus untreated control): 1.8 fold
- decrease in protein level of histone H3 types (SW620 cells; versus untreated control): at least 3.7 fold
- decrease in protein level of hnRNPs (SW620 cells; versus untreated control): at least 2 fold
- decrease in protein level of snRNPs (SW620 cells; versus untreated control): 1.8 fold
- increase in histone H2A.Z (SW620 cells; versus untreated control): 24 fold
- increase in level of RNA helicases (SW620 cells; versus untreated control): ≥ 1.9 fold
- increase in level of certain snRNP components (SW620 cells; versus untreated control): ≥ 3 fold
- increase in level of transcription regulators/co-factors (SW620 cells; versus untreated control): ≥ 2 fold

Compound: dicarboxylic ester of γ-Tocotrienol [DCE-γT]
- number of proteins whose expression was elicited (SW620 cells; 24 hrs): 37
- number of proteins whose expression was elicited (SW620 cells; 36 hrs): 30
- number of proteins whose expression was elicited (SW620 cells; 48 hrs): 29
- decrease in DNA repair factors (SW620 cells; versus untreated control): 2 fold
- decrease in protein level of histone H3 types (SW620 cells; versus untreated control): at least 6 fold
- decrease in protein level of snRNPs (SW620 cells; versus untreated control): 2 fold
- increase in histone H2A.Z (SW620 cells; versus untreated control): 23 fold
- increase in histone H3 forms (SW620 cells; versus untreated control): ≥ 1.8 fold
- time of peak fluorescent signal ([2]; in vivo biodistribution, liver uptake as a function of time): 30 min
- blood brain barrier passage ([2]; uptake by mouse brain parenchyma cells): able to pass the blood brain barrier
- FRET signal [3]: amplified FRET signal
- activation within the EGFR axis [4]: neither the ester nor the hydrolysis products elicit any unwanted activation
